Experimental data as given in patent US20220235011A1, “PHTHALAZINONE COMPOUNDS AND USE THEREOF” (ST PHARM CO., LTD., priority 2019, published 2022).

Biological target: T1, Sirt6 (Homo sapiens, UniProt Q8N6T7)
T1 construct: purchased CycLex CY-1156V2
Experiment: Measurement of Sirt6 Activity (CycLex Sirt6 Deacetylase Fluorometric Assay Kit)
Assay type: biochemical
Settings: compound at 10 μM, fluorescence relative to the group without compound treatment (positive control group)
Protocol: LC-MS (ESI, m/z)=430.1 (M+H^+) Experimental Example 1: Measurement of Sirt6 Activity Compounds having Sirt6 activity were selected using a CycLex Sirt6 Deacetylase Fluorometric Assay Kit (cat. CY-1156V2) manufactured by CycLex.
When a fluorescent-attached acetylated lysine substrate is treated with Sirt6 enzyme, Sirt6 deacetylates the acetylated lysine of the substrate and lysylendopeptidase cleaves the C-terminal peptide bond connected to the lysine, by which fluorescence is emitted. The activity of a compound is calculated by observing the intensity of fluorescence when the compound is treated along with Sirt6 enzyme. When treating the compound, the compound aids in the activity of Sirt6 enzyme, so as to result in stronger fluorescence. Therefore, by calculating the ratio of the stronger fluorescence relative to the fluorescence emitted from the group without compound treatment (i.e., positive control group), relative activity can be calculated.
Activity evaluation was performed according to the following procedure.
The compound whose activity is to be evaluated was prepared by diluting in phosphate-buffered saline (PBS) to 10 times of the desired concentration (e.g., when measuring Sirt6 assay activity at 10 μM, the compound is prepared at a concentration of 100 μM in PBS). 1 μL of a 1 Ox Sirt6 assay buffer, 0.8 μL of 50× fluoro-substrate peptide, 1 μL of nicotinamide adenine dinucleotide (NAD), 1 μL of a developer and 4.2 μL of H2O were mixed to prepare mixtures equal to the number of samples, and 8 μL was dispensed into each Black 384 well. An additional 1 μL of PBS was added to each of a “no enzyme group” and a positive control group, and 1 μL of the compound diluted in PBS was added to an activity evaluation group. Recombinant Sirt6 was 1:8 diluted in a 1×Sirt6 assay buffer, and 1 μL thereof was added to each of the positive control group and the activity evaluation group. 1 μL of the 1×Sirt6 assay buffer was added to the “no enzyme group.” After reacting at room temperature for one hour, results were measured with a fluorescence spectrometer (excitation: 490±10 nm, emission: 530±10 nm) to confirm the presence or absence of Sirt6 activity and measure the intensity of the activity.

T1 sequence (Q8N6T7 whole entry): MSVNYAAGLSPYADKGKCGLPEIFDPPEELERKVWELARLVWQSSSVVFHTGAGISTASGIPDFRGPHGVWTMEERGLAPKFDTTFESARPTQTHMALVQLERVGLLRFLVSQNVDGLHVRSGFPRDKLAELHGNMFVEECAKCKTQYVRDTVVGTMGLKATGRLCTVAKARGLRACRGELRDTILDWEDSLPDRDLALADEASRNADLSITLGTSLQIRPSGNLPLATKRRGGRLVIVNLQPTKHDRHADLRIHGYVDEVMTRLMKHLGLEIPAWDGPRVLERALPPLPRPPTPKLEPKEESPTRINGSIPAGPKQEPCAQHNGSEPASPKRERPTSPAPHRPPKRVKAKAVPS

Row | SMILES | Sirt6 Activity (% activity, 10 μM) (10 µM) [% activity] | Sirt6 Activity (% activity, 10 μM) [% activity]
1 | CC(C)/[N+]([O-])=C/c1cccc(-c2nn(-c3ccc(F)cc3)c(=O)c3ccccc23)c1 [Example 17, (Z)-1-(3-(3-(4-Fluorophenyl)-4-oxo-3,4-dihydrophthalazin-1-yl)phenyl)-N-isopropylmethanimine Oxide] | 207 | 
2 | CC(C)(C(=O)O)C1CCCN(c2nn(-c3ccc(Cl)cc3)c(=O)c3ccccc23)C1 (centres unmarked) [Example 209, 2-(1-(3-(4-Chlorophenyl)-4-oxo-3,4-dihydrophthalazin-1-yl)piperidin-3-yl)-2-methylpropanoic Acid] |  | 169.10
3 | CC(C)(C(=O)O)C1CCCN(c2nn(-c3ccc(F)cc3F)c(=O)c3ccccc23)C1 (centres unmarked) [Example 210-1, 2-(1-(3-(2,4-Difluorophenyl)-4-oxo-3,4-dihydrophthalazin-1-yl)piperidin-3-yl)-2-methylpropanoic Acid] | 199.00 | 
4 | CC(C)(C(=O)O)C1CCCN(c2nn(-c3ccc(F)cc3F)c(=O)c3ccccc23)C1 (centres unmarked) [Example 205, 2-(1-(3-(2,4-Difluorophenyl)-4-oxo-3,4-dihydrophthalazin-1-yl)piperidin-3-yl)-2-methylpropanoic Acid] | 105.70 | 
5 | O=C(NO)c1cccc(-c2nn(-c3ccc(F)cc3)c(=O)c3ccccc23)c1 [Example 83, 3-(3-(4-Fluorophenyl)-4-oxo-3,4-dihydrophthalazin-1-yl)-N-hydroxybenzamide] |  | 162
6 | CCS(=O)(=O)Nc1cccc(-c2nn(C3CCN(C)CC3)c(=O)c3ccccc23)c1 [Example 129, N-(3-(3-(1-Methylpiperidin-4-yl)-4-oxo-3,4-dihydrophthalazin-1-yl)phenyl)ethane Sulfonamide] |  | 104.16
7 | COC(=O)c1cccc(-c2nn(-c3ccc(F)cc3)c(=O)c3ccccc23)c1 [Example 66, Methyl 3-(3-(4-fluorophenyl)-4-oxo-3,4-dihydrophthalazin-1-yl)benzoate] |  | 103
8 | CN(C)S(=O)(=O)c1cccc(-c2nn(-c3ccccc3F)c(=O)c3ccccc23)c1 [Example 101, 3-(3-(2-Fluorophenyl)-4-oxo-3,4-dihydrophthalazin-1-yl)-N,N-dimethylbenzene Sulfonamide] |  | 153
9 | CC(C)(C)/[N+]([O-])=C/c1ccccc1-c1nn(-c2ccc(F)cc2)c(=O)c2ccccc12 [Example 42, (Z)—N-tert-Butyl-1-(2-(3-(4-fluorophenyl)-4-oxo-3,4-dihydrophthalazin-1-yl)phenyl)methanimine Oxide] |  | 161
10 | Nc1cccc(-c2nn(-c3ccc(F)cc3F)c(=O)c3ccccc23)c1 [Example 24, 4-(3-Aminophenyl)-2-(2,4-difluorophenyl)phthalazin-1(2H)-one] |  | 147
11 | CC(C)(N)c1cccc(-c2nn(-c3ccc(F)cc3F)c(=O)c3ccccc23)c1.Cl [Example 200, 4-(3-(2-Aminopropan-2-yl)phenyl)-2-(2,4-difluorophenyl)phthalazin-1(2H)-one-hydrochloride] |  | 255.33
12 | CCNS(=O)(=O)c1cccc(-c2nn(-c3ccc(F)cc3F)c(=O)c3ccc(F)cc23)c1 [Example 124, 3-(3-(2,4-Difluorophenyl)-7-fluoro-4-oxo-3,4-dihydrophthalazin-1-yl)-N-ethylbenzenesulfonamide] |  | 146
13 | CNS(=O)(=O)c1cccc(-c2nn(-c3ccc(F)cc3F)c(=O)c3ccccc23)c1 [Example 91, 3-(3-(2,4-Difluorophenyl)-4-oxo-3,4-dihydrophthalazin-1-yl)-N-methylbenzene Sulfonamide] |  | 272
14 | CC(C)(c1cccc(-c2nn(-c3ccc(F)cc3F)c(=O)c3ccccc23)c1)c1nnn[nH]1 [Example 169, 4-(3-(2-(1H-Tetrazol-5-yl)propan-2-yl)phenyl)-2-(2,4-difluorophenyl)phthalazin-1(2H)-one] |  | 211.3
15 | CCS(=O)(=O)Nc1cccc(-c2nn(-c3ccc(C(F)(F)F)cc3)c(=O)c3ccccc23)c1 [Example 3, N-(3-(4-Oxo-3-(4-(trifluoromethyl)phenyl)-3,4-dihydrophthalazin-1-yl)phenyl)ethanesulfonamide] |  | 104
16 | CCS(=O)(=O)c1cccc(-c2nn(-c3ccccc3F)c(=O)c3ccccc23)c1 [Example 98, 4-(3-(Ethylsulfonyl)phenyl)-2-(2-fluorophenyl)phthalazin-1(2H)-one] |  | 264
17 | CCS(=O)(=O)Nc1cccc(-c2nn(Cc3ccc(F)cc3)c(=O)c3ccccc23)c1 [Example 63, N-(3-(3-(4-Fluorobenzyl)-4-oxo-3,4-dihydrophthalazin-1-yl)phenyl)ethanesulfonamide] |  | 103
18 | CCS(=O)(=O)Nc1cccc(-c2nn(-c3ccc(-c4ccccc4)cc3)c(=O)c3ccccc23)c1 [Example 64, N-(3-(3-([1,1′-Biphenyl]-4-yl)-4-oxo-3,4-dihydrophthalazin-1-yl)phenyl)ethane Sulfonamide] |  | 106
19 | CCS(=O)(=O)c1cccc(-c2nn(-c3c(F)cccc3F)c(=O)c3ccccc23)c1 [Example 106, 2-(2,6-Difluorophenyl)-4-(3-(ethylsulfonyl)phenyl)phthalazin-1(2H)-one] |  | 141
20 | CC(C)(C(=O)O)c1cccc(-c2nn(C3CCCCC3)c(=O)c3ccccc23)c1 [Example 160, 2-(3-(3-Cyclohexyl-4-oxo-3,4-dihydrophthalazin-1-yl)phenyl)-2-methylpropanoic Acid] |  | 289.8
21 | C/[N+]([O-])=C/c1ccccc1-c1nn(-c2ccc(F)cc2)c(=O)c2ccccc12 [Example 40, (Z)-1-(2-(3-(4-Fluorophenyl)-4-oxo-3,4-dihydrophthalazin-1-yl)phenyl)-N-methylmethanimine Oxide] |  | 160
22 | CC(C)(C)/[N+]([O-])=C/c1cccc(-c2nn(-c3ccc(F)cc3F)c(=O)c3ccccc23)c1 [Example 23, (Z)—N-tert-Butyl-1-(3-(3-(2,4-difluorophenyl)-4-oxo-3,4-dihydrophthalazin-1-yl)phenyl)methanimine Oxide] |  | 192
23 | N/C(=N/O)c1cccc(-c2nn(-c3ccc(F)cc3)c(=O)c3ccccc23)c1 [Example 131, (E)-3-(3-(4-Fluorophenyl)-4-oxo-3,4-dihydrophthalazin-1-yl)-N′-hydroxybenzimidamide] |  | 102.08
24 | CNS(=O)(=O)c1cccc(-c2nn(-c3ccc(F)cc3F)c(=O)c3cc(F)ccc23)c1 [Example 122, 3-(3-(2,4-Difluorophenyl)-6-fluoro-4-oxo-3,4-dihydrophthalazin-1-yl)-N-methylbenzenesulfonamide] |  | 177
25 | CNC(=O)C(C)(C)c1cccc(-c2nn(-c3ccc(F)cc3)c(=O)c3ccccc23)c1 [Example 153, 2-(3-(3-(4-Fluorophenyl)-4-oxo-3,4-dihydrophthalazin-1-yl)phenyl)-N,2-dimethylpropanamide] |  | 280.4
26 | CCNS(=O)(=O)c1cccc(-c2nn(-c3ccc(F)cc3F)c(=O)c3ccccc23)c1 [Example 92, 3-(3-(2,4-Difluorophenyl)-4-oxo-3,4-dihydrophthalazin-1-yl)-N-ethylbenzene Sulfonamide] |  | 208
27 | NS(=O)(=O)c1cccc(-c2nn(-c3ccc(F)cc3F)c(=O)c3ccccc23)c1 [Example 126, 3-(3-(2,4-Difluorophenyl)-4-oxo-3,4-dihydrophthalazin-1-yl)benzenesulfonamide] |  | 185
28 | Cl.NC1CCCCN(c2nn(C3CCCC3)c(=O)c3ccccc23)C1 (centres unmarked) [Example 173, 4-(3-Aminoazepan-1-yl)-2-cyclopentyl phthalazin-1(2H)-one-hydrochloride] |  | 112.2
29 | COC(=O)NS(=O)(=O)Nc1cccc(-c2nn(-c3ccc(F)cc3F)c(=O)c3ccccc23)c1 [Example 26, Methyl (N-(3-(3-(2,4-difluorophenyl)-4-oxo-3,4-dinydrophthalazin-1-yl)phenyl)sulfamoyl)carbamate] |  | 180
